Legend:
[1] = Insulin oral delivery in rats; type: in vivo, rat; details: oral gavage to fasted male Sprague-Dawley rats; dosing solution delivery agent 200 mg/ml + human recombinant insulin 0.5 mg/ml
[2] = Heparin (LMWH) oral delivery in rats, plasma LMWH by anti-Factor Xa assay; type: in vivo, rat; details: male Sprague-Dawley rats, delivery agent 300 mg/kg, LMWH 100 IU/kg, volume 3 ml/kg, 25% aqueous propylene glycol
Method: Oral dosing solutions containing delivery agent compound and heparin sodium USP were prepared in 25% aqueous propylene glycol. Either the sodium salt of the delivery agent compound was used or the free acid was converted to the sodium salt with one equivalent of sodium hydroxide. The delivery agent compound and heparin (about 166-182 IU/mg) were mixed by vortex as dry powders. This dry mixture was dissolved in 25% v/v aqueous propylene glycol, vortexed, and placed in a sonicator (about 37° C.). The pH was adjusted to about 7 (6.5-8.5) with aqueous NaOH (2N). The dosing solution was sonicated to produce a clear solution. The final volume was adjusted to about 3.0 ml.
Male Sprague-Dawley rats were fasted for 24 hours and anesthetized with ketamine hydrochloride (88 mg/kg) intramuscularly immediately prior to dosing and again as needed to maintain anesthesia. A dosing group of five animals were administered one of the dosing solutions. An 11 cm Rusch 8 French catheter was adapted to a 1 ml syringe with a pipette tip. […]
Citrated blood samples were collected by cardiac puncture following the administration of ketamine (88 mg/kg), typically at 0.25, 0.5, 1.0 and 1.5 hours after dosing. […] LMWH absorption was verified by an increase in plasma LMWH measured by the anti-Factor Xa assay CHROMOSTRATE™ Heparin anti-Xa assay (available from Organon Teknika Corporation, Durham, N.C.).

| melting point [°C] | Structure (SMILES) | % Glucose Cmin (Rat) [1] [%] | Mean Peak Plasma LMWH Concentration (IU/ml) ± SD [2] [IU/ml] |
| --- | --- | --- | --- |
| – | Cc1ccccc1CCOCC(=O)O [Compound 1, (2-o-Tolyl-ethoxy)-acetic acid] | −36.5 | – |
| 50 to 52 | Cc1ccc(CCOCC(=O)O)cc1 [Compound 2] | −54.3 | – |
| – | Cc1cccc(CCOCC(=O)O)c1 [Compound 3, Sodium (2-m-Tolyl-ethoxy)-acetate] | −30.1 | – |
| 51 to 52 | O=C(O)COCCc1ccc(Cl)cc1 [Compound 4] | −54.3 | – |
| – | O=C(O)COCCc1ccccc1Cl [Compound 5] | −39.7 | – |
| – | O=C(O)COCCc1cccc(Cl)c1 [Compound 6] | −20.9 | – |
| 67 to 68 | O=C(O)COCCc1ccc(F)cc1 [Compound 7] | −41.9 | – |
| – | O=C(O)COCCc1ccccc1F [Compound 8] | −33.5 | – |
| 36 to 37 | O=C(O)COCCc1cccc(F)c1 [Compound 9] | −29.3 | – |
| 44 to 45 | Cc1ccc(COCC(=O)O)cc1 [Compound 10] | −46.6 | – |
| – | Cc1cccc(COCC(=O)O)c1 [Compound 11] | −23.7 | – |
| – | O=C(O)COCc1ccc(Cl)cc1 [Compound 13] | −45.3 | – |
| – | O=C(O)COCc1cccc(Cl)c1 [Compound 14] | −35.3 | – |
| – | O=C(O)COCc1ccccc1Cl [Compound 15] | −39.9 | – |
| – | O=C(O)COCc1ccc(F)cc1 [Compound 16] | −18.1 | – |
| – | O=C(O)COCc1cccc(F)c1 [Compound 17] | −17.6 | – |
| – | O=C(O)COCc1ccccc1F [Compound 18] | −14.6 | – |
| 81 to 83 | Cc1cc(C)c(COCC(=O)O)c(C)c1 [Compound 19, (2,4,6-Trimethyl-benzyloxy)-acetic acid] | −27.5 | – |
| 103 to 105 | Cc1cc(C)c(C)c(COCC(=O)O)c1C [Compound 20] | – | – |
| 74 to 75 | Cc1ccc(C)c(COCC(=O)O)c1 [Compound 21] | −35.0 | – |
| 54 to 56 | Cc1ccc(COCC(=O)O)c(C)c1 [Compound 22] | – | – |

| melting point [°C] | Structure (SMILES) | % Glucose Cmin (Rat) [1] [%] | Mean Peak Plasma LMWH Concentration (IU/ml) ± SD [2] [IU/ml] |
| --- | --- | --- | --- |
| 53 to 54 | Cc1ccc(COCC(=O)O)cc1Cl [Compound 23] | −5.5 | – |
| 42 to 43 | Cc1ccc(C)c(CCOCC(=O)O)c1 [Compound 24] | −24.7 | – |
| 50 to 51 | Cc1cc(C)cc(CCOCC(=O)O)c1 [Compound 25] | −4.6 | – |
| – | O=C(O)COCCCCc1ccccc1 [Compound 26] | −21.0 | – |
| – | O=C(O)COCCc1ccccc1C(F)(F)F [Compound 27] | −11.3 | – |
| – | COc1ccc(CCCCOCC(=O)O)cc1 [Compound 28] | −10.6 | – |
| – | COc1ccc(CCCOCC(=O)O)cc1 [Compound 29] | −36.3 | – |
| – | Cc1ccc(CCCOCC(=O)O)cc1 [Compound 30] | −19.5 | – |
| – | Cc1ccccc1CCCOCC(=O)O [Compound 31] | −6.1 | – |
| – | O=C(O)COCCCCCc1ccccc1 [Compound 32] | −15.1 | – |
| – | COc1ccc(CCOCC(=O)O)cc1 [Compound 33] | −9.8 | – |
| – | O=C(O)COCCc1ccccc1 [Compound 34] | −32.2 | – |
| – | O=C(O)COCCCc1ccccc1 [Compound 35] | −26.1 | – |
| – | COc1ccccc1CCOCC(=O)O [Compound 36] | −4.4 | – |
| – | O=C(O)COCCc1ccc(F)cc1Cl [Compound 37] | −30.0 | – |
| – | O=C(O)COCCc1ccc(Br)cc1 [Compound 39] | −31.6 | – |
| – | O=C(O)COC1Cc2ccccc2C1 [Compound 40] | −15.8 | – |
| – | O=C(O)COC1CCc2ccccc21 (stereo not drawn) [Compound 41] | −27.8 | – |
| – | O=C(O)COCCCc1ccc(Cl)cc1 [Compound 42] | −20.4 | – |
| – | O=C([O-])CCCCCCCNC(=O)c1ccccc1O.[Na+] [Delivery Agent A, monosodium salt of N-(8-[2-hydroxybenzoyl]-amino)caprylic acid] | – | 0.984 |

From patent publication US8703821B2, “Dialkyl ether delivery agents” (Emisphere Technologies Inc., priority 2006, dated 2014)
